Among the test systems are A549; EKVX; HCC 2998; HCT-116; HOP-18; HOP-62; K562; M19-MEL; MOLT-4; NCI-H23; RPMI-8226; SK-MEL-2; SK-MEL-5; TK-10; U-251; UO-31; Malme-3M; NCI-H226; NCI-H522; SK-OV-3.
What all share (test): inhibition of tumour cell growth, NCI panel, 48 h

Molecules are shown by their SMILES.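 96-well plates; 48 h exposure; 5 concentrations. Endpoints by linear interpolation between flanking doses. Not reached: highest tested concentration assigned. At the GI50, growth is halved.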 Calls of active or inactive are those of the source. Rule as the data show it: active = GI50 up to about 1.1 µM and inactive = higher.

Take `Nc1cc(-c2ccccc2)nn1-c1nsc2ccccc12`: the GI50 is > 100 µM (inactive) in the assay with A549; 47.8 µM (inactive) in the assay on EKVX; > 100 µM (inactive) with HCC 2998; 73.3 µM (inactive) in the assay with HCT-116; 0.573 µM (active) with HOP-18; 36.3 µM (inactive) with HOP-62. In addition, the GI50 was 40.4 µM (inactive) with K562; > 100 µM (inactive) in the assay on M19-MEL; 55.1 µM (inactive) in the assay with MOLT-4; > 100 µM (inactive) with NCI-H23; 76.9 µM (inactive) in the assay on RPMI-8226; > 100 µM (inactive) in the assay on SK-MEL-2. For the same compound, the GI50 in the assay on SK-MEL-5 is > 100 µM (inactive); in the assay on TK-10, > 100 µM (inactive); in the assay on U-251 it was 54.2 µM (inactive); in the assay on UO-31, > 100 µM (inactive).
On to `CNC(=O)CN1CC(=O)N(C)C(=O)C1`, for which the GI50 with HCC 2998, in the assay on HOP-62, in the assay on K562, in the assay with M19-MEL, with MOLT-4 and in the assay with Malme-3M was > 100 µM (inactive) each time. Further, the GI50 with NCI-H226, with NCI-H23, in the assay with NCI-H522, in the assay with RPMI-8226, with SK-MEL-2 and with SK-MEL-5 was > 100 µM (inactive) each time. Moreover, the GI50 with SK-OV-3, in the assay on TK-10, in the assay with U-251 and with UO-31 was > 100 µM (inactive) throughout.
Regarding `CC1(C)Cc2c(C#N)c(N)c3c(c2CO1)C(=O)OC3=O`, the GI50 in the assay on A549, in the assay on EKVX, in the assay on HCC 2998, with HCT-116, in the assay with HOP-18 and in the assay with HOP-62 was > 100 µM (inactive) in each case. Further, the GI50 in the assay with K562, with M19-MEL, in the assay on MOLT-4, in the assay with Malme-3M, in the assay with NCI-H226 and with NCI-H23 was > 100 µM (inactive) in each case. In addition, the GI50 in the assay on NCI-H522, with RPMI-8226, with SK-MEL-2, with SK-MEL-5, in the assay on SK-OV-3 and in the assay on TK-10 was > 100 µM (inactive) throughout. The GI50 in the assay with U-251 and in the assay on UO-31 was > 100 µM (inactive) throughout.
